The source made the active and inactive calls. No cut-off for these calls is given here.

Here are results for 4 molecules from ChEMBL document CHEMBL4052638, “Multitarget trehalose-carnosine conjugates inhibit Aβ aggregation, tune copper(II) activity and decrease acrolein toxicity” (Eur J Med Chem, 2017).

A short description of data set [1]: Drug metabolism assessed as human recombinant carnosinase mediated compound hydrolysis at 0.5 mM after 1.5 hrs by RP-HPLC analysis. It counts as ADME. To be noted: 500 µM.
The nature of data set [2]: Antiglycating activity in phosphate buffer assessed as ACR-compound adduct formation at 10 mM at pH 7.4 after 1 to 24 hrs by HPLC-MS/MS spectra analysis. To be noted: pH 7.4, 10000 µM. In kind it is physicochemical.
The nature of data set [3]: Antiglycating activity in phosphate buffer assessed as decrease in ACR levels at 10 mM at pH 7.4 after 1 hr by RP-HPLC analysis relative to control. In kind it is physicochemical. Set-up: scale not given: the % may be the effect or the level left. To be noted: pH 7.4, 1 h, 10000 µM.
Data set [4] in a line: Antiglycating activity in phosphate buffer assessed as ACR levels at 10 mM at pH 7.4 after 24 hr by RP-HPLC analysis relative to control. In kind it is physicochemical. To be noted: pH 7.4, 24 h, 10000 µM.
Data set [5] is described as follows: Antiglycating activity in phosphate buffer assessed as decrease in ACR levels at 10 mM at pH 7.4 up to 4 hrs by RP-HPLC analysis relative to control. In kind it is physicochemical. Further details: scale not given: the % may be the effect or the level left. To be noted: pH 7.4, 4 h, 10000 µM.
A short description of data set [6]: Inhibition of cupric ion-mediated amyloid beta (1 to 40) aggregation at 20 mM at pH 6.6 after 3 hrs by light scattering assay.
The target of data set [7] is Amyloid-beta precursor protein (Homo sapiens) (UniProt P05067). Briefly: Inhibition of amyloid beta (1 to 42) (unknown origin) self induced aggregation assessed as reduction in flat ribbons formation at 500 uM after 30 hrs by atomic force microscopic analysis.
For data set [8] the target is unchanged. Description: Inhibition of amyloid beta (1 to 42) (unknown origin) self induced aggregation assessed as time at which amplitude of ThT emission is 50% of difference between final and initial fluorescence emission at 40 to 5000 uM […] by ThT-based fluorometric method (reference value: 11 +/- 1 hrs).
Data set [9] shares this target. Description: Inhibition of amyloid beta (1 to 42) (unknown origin) self induced aggregation […] by ThT-based fluorometric method.
The target is the same in data set [10]. Briefly: Inhibition of amyloid beta (1 to 42) (unknown origin) self induced aggregation assessed as fluorescence emission rate constant K at 40 to 5000 uM […] in presence of trehalose by ThT-based fluorometric method (reference value: 1.3 +/- 0.1).
Data set [11] shares this target. Briefly: Inhibition of amyloid beta (1 to 42) (unknown origin) self induced aggregation assessed as reduction in protofibrils formation at 500 uM after 30 hrs by atomic force microscopic analysis.
For data set [12] the target is unchanged. Description: Inhibition of amyloid beta (1 to 42) (unknown origin) self induced aggregation assessed as difference between final and initial fluorescence emission at 40 to 5000 uM […] by ThT-based fluorometric method (reference value: 52 +/- 7 a.u.).
Data set [13] has the same target. Description: Inhibition of amyloid beta (1 to 42) (unknown origin) self induced aggregation assessed as difference between final and initial fluorescence emission at 40 to 5000 uM […] in presence of trehalose by ThT-based fluorometric method (reference value: 52 +/- 7 a.u.).
For data set [14] the target is unchanged. Description: Inhibition of amyloid beta (1 to 42) (unknown origin) self induced aggregation assessed as fluorescence emission rate constant K at 40 to 5000 uM […] by ThT-based fluorometric method (reference value: 1.3 +/- 0.1).
For data set [15] the target is unchanged. Briefly: Inhibition of amyloid beta (1 to 42) (unknown origin) self induced aggregation assessed as Tlag at 40 to 5000 uM in presence of trehalose by ThT-based fluorometric method (reference value: 8.3 +/- 0.7 hrs).
The target is the same in data set [16]. Briefly: Inhibition of amyloid beta (1 to 42) (unknown origin) self induced aggregation assessed as time at which amplitude of ThT emission is 50% of difference between final and initial fluorescence emission at 40 to 5000 uM in presence of trehalose by ThT-based fluorometric method (reference value: 11 +/- 1 hrs).
Data set [17] has the same target. Description: Inhibition of amyloid beta (1 to 42) (unknown origin) self induced aggregation assessed as lag time at 40 to 5000 uM […] by ThT-based fluorometric method (reference value: 8.3 +/- 0.7 hrs).
Data set [18] is described as follows: Antiglycating activity in phosphate buffer assessed as decrease in ACR levels at 10 mM at pH 7.4 by RP-HPLC analysis. It counts as physicochemical. To be noted: pH 7.4, 10000 µM, TDE = time-dependent effect.
Data set [19] in a line: Stability of the compound assessed as human recombinant carnosinase mediated compound hydrolysis at 0.5 mM after 2.5 hrs by RP-HPLC analysis. It counts as ADME. To be noted: 500 µM.
The target in data set [20] is Amyloid-beta precursor protein (Homo sapiens) (UniProt P05067). Briefly: Inhibition of amyloid beta (1 to 42) (unknown origin) self induced aggregation assessed as average assembled nanostructure height at 500 uM after 30 hrs by atomic force microscopic analysis.

Sequence of Amyloid-beta precursor protein (Homo sapiens) (P05067 whole entry): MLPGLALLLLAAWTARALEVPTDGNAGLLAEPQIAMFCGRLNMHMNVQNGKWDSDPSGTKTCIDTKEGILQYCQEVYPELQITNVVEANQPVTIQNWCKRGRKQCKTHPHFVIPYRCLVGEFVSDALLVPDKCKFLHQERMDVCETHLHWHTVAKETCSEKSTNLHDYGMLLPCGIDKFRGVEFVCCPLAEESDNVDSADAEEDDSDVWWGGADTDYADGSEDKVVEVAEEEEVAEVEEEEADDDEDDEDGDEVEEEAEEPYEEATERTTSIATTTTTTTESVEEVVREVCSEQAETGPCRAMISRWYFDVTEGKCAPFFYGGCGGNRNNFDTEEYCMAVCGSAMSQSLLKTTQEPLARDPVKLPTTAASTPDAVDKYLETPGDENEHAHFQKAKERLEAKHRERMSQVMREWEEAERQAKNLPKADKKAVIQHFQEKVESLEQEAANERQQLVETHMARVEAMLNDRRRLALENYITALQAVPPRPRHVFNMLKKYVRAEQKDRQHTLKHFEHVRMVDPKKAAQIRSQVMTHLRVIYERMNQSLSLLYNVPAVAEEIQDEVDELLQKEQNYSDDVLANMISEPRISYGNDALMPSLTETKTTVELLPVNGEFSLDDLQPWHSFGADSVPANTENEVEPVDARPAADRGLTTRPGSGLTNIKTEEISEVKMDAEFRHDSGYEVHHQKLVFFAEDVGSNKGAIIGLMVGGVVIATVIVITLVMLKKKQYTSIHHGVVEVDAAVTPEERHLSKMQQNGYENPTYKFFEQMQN

For the molecule `NCCC(=O)N[C@@H](Cc1cnc[nH]1)C(=O)O` [CARNOSINE], in data set [1], the Drug metabolism entry is “Metabolite_Detected”. The Activity result is “Active” in data set [2], 40% in [3], 0% in [4] and 0% in data set [5].
With `NCCC(=O)N[C@@H](Cc1c[nH]cn1)C(=O)O`, in data set [6], the inhibition entry is “Active”. Besides, the inhibition entry in data set [7] and in [11] was “inactive” each time. Also, the T1/2 in [8] amounted to 7.8 h; in data set [16], 5.8 h. Also, the Activity entry is “Dose-dependent effect” in data set [9], 33 a.u in data set [12] and 31 a.u in data set [13]. In addition, the figures for the K in data set [10] and in [14] were 2.7 and 1.9, respectively. Moreover, the results for the Tlag in data set [15] and in data set [17] were 4.3 h and 3.9 h, respectively.
As to `OC[C@H]1O[C@H](O[C@H]2O[C@H](CO)[C@@H](O)[C@H](O)[C@H]2O)[C@H](O)[C@@H](O)[C@@H]1O`, in data set [8], the T1/2 is 8.3 h. Further, the Activity entry in [9] was “Dose-dependent effect”; in [12], 37 a.u. The K in data set [14] amounted to 1.7. In [17], the Tlag was 4.7 h.
Regarding `O=C(CCNC[C@H]1O[C@H](O[C@H]2O[C@H](CO)[C@@H](O)[C@H](O)[C@H]2O)[C@H](O)[C@@H](O)[C@@H]1O)N[C@@H](Cc1c[nH]cn1)C(=O)O`, the inhibition entry in data set [6], in data set [7] and in [11] was “Active” throughout. Moreover, the T1/2 in [8] came out at 4.1 h. Moreover, the Activity entry was “Dose-dependent effect” in data set [9]; “Tde” in data set [18]; 6 a.u in data set [12]; “Active” in data set [2]; 1% in data set [4]; 2.1 nm in [20]. Moreover, the Stability result in data set [19] was “Stable”. Further, in [14], the K turned out to be 0.7. In addition, the Tlag in data set [17] was found to be 2.7 h.
